Measured values published in patent publication EP0014434A1, “Right-turning basic derivative of 9,10-ethanoanthracene, process for its preparation and pharmaceutical preparations containing it” (priority 1979, dated 1980).

Key:
[1] = test system: endogenen Konzentrationen von Noradrenalin im Rattenhirn; test: Endogenous noradrenaline concentration in rat brain; type: in vivo, Ratte; settings: no influence up to this dose, p.o. for Formel I (Hydrochlorid)
[2] = test system: Noradrenalindepletierenden Effektes von H 77/77 (3-Hydroxy-4,a-dimethyl- phenäthylamin) im Rattenhirn; test: Inhibition of the noradrenaline-depleting effect of H 77/77 in rat brain (indirect measure of noradrenaline uptake inhibition); type: in vivo, Ratte; settings: po, Formel I tested as Hydrochlorid, read-out: ED50 Hemmung des Noradrenalindepletierenden Effektes von H 77/77 im Rattenhirn
[3] = test system: endogenen Konzentrationen von Dopamin im Rattenhirn; test: Endogenous dopamine concentration in rat brain; type: in vivo, Ratte; settings: no influence up to this dose, p.o. for Formel I (Hydrochlorid)
[4] = test system: durch 2 mg/kg sc. Reserpin induzierte Ptosis; test: Antagonism of reserpine-induced ptosis; type: in vivo, männlichen Ratten
Method: (§1) Das S-(+)-o-[Methylamino)methyl]-9,10-äthanoan- thracen-9(10H)-äthanol und seine Säureadditionssalze besitzen wertvolle pharmakologische Eigenschaften. Vor allem zeigen sie sehr starke Wirkungen in Tests, die für Antidepressiva charakteristisch sind. Eine deutliche Antagonisierung der durch 2 mg/kg sc. Reserpin induzierten Hypothermie an männlichen Mäusen [Askew, Life Sci. 10, 725 (1963),und Benz und Waser, Dissertation 1971, Pharmakolog. […] Die durch 2 mg/kg sc. Reserpin induzierte Ptosis an männlichen Ratten [Rubin et al, J. Pharmacol. Exp. Therap.

[5] = test system: Noradrenalin- Aufnahme ins Rattenherz; test: Inhibition of noradrenaline uptake into rat heart (method of Maitre, Staehelin and Bein); type: in vivo, Ratte; settings: po, Formel I tested as Hydrochlorid, read-out: ED50 Hemmung der Noradrenalin- Aufnahme ins Rattenherz
Method: Neurobiochemisch zeigt das Hydrochlorid der Verbindung der Formel I eine starke Hemmung der Noradrenalin- Aufnahme ins Rattenherz gemäss der Methode von L. Maitre, M. Staehelin und H. Bein, Biochem. Pharmacol. 20, 2169 (1971) mit einer ED50 von etwa 0,3 mg/kg p.o., während die ED50 des entsprechenden Racemats bei etwa 1,5 mg/kg p.o. liegt, wie auch eine starke Hemmung des Noradrenalindepletierenden Effektes von H 77/77 (3-Hydroxy-4,a-dimethyl- phenäthylamin) im Rattenhirn als indirekte Anzeige der Noradrenalin-Aufnahme-Hemmung [A. Carlsson, H. Corrodi, K. Fuxe und T. Hoefkelt, Europ. J. Pharmacol. 5, 367 (1969)] mit einer ED50 von etwa 2 mg/kg p.o., gegenüber einer ED50 von etwa 10 mg/kg p.o. des entsprechenden Racemats. Die endogenen Konzentrationen von Noradrenalin und von Dopamin im Rattenhirn, gemessen nach P. Waldmeier, de Herdt und L. Maitre [Chir. Chem. 20, 81, (1974)] werden weder vom Hydrochlorid der Verbindung der Formel I in Dosen bis 100 mg/kg bzw. bis 30 mg/kg p.o., noch vom entsprechenden Racemat in Dosen bis 10 mg/kg bzw. bis 100 mg/kg beeinflusst.

[6] = test system: durch Fuss-Schock induzierten Kampfreaktion der Maus; test: Foot-shock induced fighting reaction; type: in vivo; settings: mouse; equal doses of Formel I (tested as Hydrochlorid) and Racemat
Excerpt: (§2) Therap. 125, 28-34 (1959)], während bei der Antagonisierung der durch Tetrabenazin induzierten Katalepsie der Ratte nach oraler Verabreichung, und bei der Potenzierung der durch G 29 505 [2-(4-Allyl-2-methoxyphenoxy)-N,N-diäthyl-acetamid] bewirkten Narkose der Maus [W. Theobald und R. Domenjoz, Arzneimittelforsch.

Histamin-Toxizität = test: Antagonism of histamine toxicity; type: in vivo, Meerschweinchen; settings: guinea pig; equal doses of Formel I (tested as Hydrochlorid) and Racemat
Excerpt: as §2

[7] = test system: durch G 29 505 [2-(4-Allyl-2-methoxyphenoxy)-N,N-diäthyl-acetamid] bewirkten Narkose der Maus; test: Potentiation of G 29 505-induced narcosis; type: in vivo; settings: mouse; intraperitoneal administration; Hydrochlorid compared with Racemat
Excerpt: as §2

[8] = test system: durch Tetrabenazin induzierten Katalepsie der Ratte; test: Antagonism of tetrabenazine-induced catalepsy; type: in vivo; settings: rat; oral administration; Hydrochlorid compared with Racemat
Excerpt: as §2

[9] = test system: durch 2 mg/kg sc. Reserpin induzierten Hypothermie; test: Antagonism of reserpine-induced hypothermia; type: in vivo, männlichen Mäusen; settings: male mice, Hydrochlorid compared with the corresponding Racemat
Method: as §1

[10] = test system: exploratorischen Aktivität der Maus; test: Exploratory activity; type: in vivo; settings: mouse; equal doses of Formel I (tested as Hydrochlorid) and Racemat
[11] = test system: isolierten rechten Vorhof; design: species or system Meerschweinchen
Acute toxicity = type: in vivo

SMILES | Dosen, bis zu denen die endogene Konzentration von Noradrenalin im Rattenhirn nicht beeinflusst wird [1] [mg/kg] | ED50 [2] [mg/kg] | Dosen, bis zu denen die endogene Konzentration von Dopamin im Rattenhirn nicht beeinflusst wird [3] [mg/kg] | Dosierung, die die Reserpin induzierte Ptosis völlig aufhebt ([4]; male rats, relative to 0,3 mg/kg p.o. of the Hydrochlorid of Formel I) | ED50 [5] [mg/kg] | durch Fuss-Schock induzierte Kampfreaktion, Vergleich mit Racemat [6] | Antagonisierung der Histamin-Toxizität, Vergleich mit Racemat (Histamin-Toxizität) | Potenzierung der durch G 29 505 bewirkten Narkose, Vergleich mit Racemat [7] | Antagonisierung der durch Tetrabenazin induzierten Katalepsie, Vergleich mit Racemat [8] | Antagonisierung der Reserpin induzierten Hypothermie, Vergleich mit Racemat [9] | exploratorische Aktivität, Vergleich mit Racemat [10] | negativ chronotrope Wirkung, Vergleich mit Racemat [11] | Reserpin induzierte Ptosis ([4]; male rats, 0,3 mg/kg p.o. of the Hydrochlorid) | Reserpin induzierte Ptosis ([4]; male rats, O,1 mg/kg p.o. of the Hydrochlorid) | akute Toxizität, Vergleich mit Racemat (Acute toxicity; intravenous administration) | akute Toxizität, Vergleich mit Racemat (Acute toxicity; oral administration)
CNCC(O)CC12CCC(c3ccccc31)c1ccccc12 (racemic) [Racemat, a-[(Methylamino)methyl]-9,10-äthanoanthracen-9(10H)-äthanol, reference compound] | ≤ 10 | ~10 | ≤ 100 | erheblich höheren Dosierung | ~1.5 |  |  |  |  |  |  |  |  |  |  | 
CNC[C@@H](O)CC12CCC(c3ccccc31)c1ccccc12 [Verbindung der Formel I, S-(+)-a-[(Methylamino)methyl]-9,10-äthanoanthracen-9(10H)-äthanol] | ≤ 100 | ~2 | ≤ 30 |  | ~0.3 | ungefähr dieselben Wirkungen | ungefähr dieselben Wirkungen | in ungefähr der halben Dosierung gleich wirksam | in ungefähr der halben Dosierung gleich wirksam | stärker als die Wirkung von mehrfachen Dosen des entsprechenden Racemats | ungefähr dieselben Wirkungen | schwächer | aufgehoben | deutlich vermindert | ungefähr gleich | ungefähr gleich
